Patent publication US20060160915A1, “Photocurable compositions” (priority 2003, published 2006)

Assay: Solubility properties in acrylate monomers
Format: physicochemical
Conditions: 0.2 g in 2.5 g TMP(3EO)TA, 40° C.
Experimental: For determining the solubility properties in acrylate monomers, which are customarily used for the preparation of overprint varnishes and UV-curable inks, 0.2 g each of the compounds obtained according to Examples 1 and 2 is stirred into 2.5 g of the acrylate monomer in question. In dipropylene glycol diacrylate (DPGDA) both compounds have dissolved within a period of 15 minutes at room temperature. In ethoxylated trimethylolpropane triacrylate (TMP(3EO)TA) the compound according to Example 2 dissolves within a period of 10 minutes at 40° C., while the compound according to Example 1 dissolves after only 4 minutes' heating at 40° C.

| SMILES | time to dissolve in ethoxylated trimethylolpropane triacrylate (TMP(3EO)TA) |
| --- | --- |
| Cc1cc(C)c(C(=O)c2ccc(-c3ccccc3)cc2)c(C)c1 [Example 2, 2,4,6-trimethyl-4′-phenylbenzophenone] | ≤ 10 min |
| Cc1cccc(C(=O)c2ccc(-c3ccccc3)cc2)c1 [Example 1, 3-methyl-4′-phenylbenzophenone] | 4 min |
